Experimental data from ChEMBL document CHEMBL5113500, “New brefeldin A-cinnamic acid ester derivatives as potential antitumor agents: Design, synthesis and biological evaluation” (Eur J Med Chem, 2022).
Values after ≈ are worked out from the molar mass of the structure shown. Active and inactive are the calls of the source. No cut-off for these calls is given here.

Legend:
[1] = Toxicity in human HepG2 cells xenografted BALB/c nude mouse assessed as adverse effect at 5 to 10 mg/kg, ip administered once daily for 16 days; assay type: organism-based; conditions: in vivo, 384 h, dose 5-10 mg/kg, time 16 day
[2] = Cytotoxicity against human L02 cells measured after 72 hrs by MTT assay; assay type: toxicity, cell-based
[3] = test system: HepG2; test: Antiproliferative activity against human HepG2 cells assessed as cell growth inhibition at 1 uM measured after 72 hrs by MTT assay relative to control; assay type: functional; conditions: read-out: GI
[4] = Solubility of the compound in 5% DMSO and 10% Solutol HS-15 saline solution; assay type: physicochemical
[5] = test system: HepG2; test: Induction of apoptosis in human HepG2 cells assessed as late apoptotic cells at 0.2 uM measured after 48 hrs by Annexin V-FITC/propidium iodide staining based flow cytometry (reference value: 1.66%); assay type: functional
[6] = test system: HepG2; test: Induction of apoptosis in human HepG2 cells assessed as early apoptotic cells at 0.2 uM measured after 48 hrs by Annexin V-FITC/propidium iodide staining based flow cytometry (reference value: 1.81%); assay type: functional
[7] = test system: HepG2; test: Cell cycle arrest in human HepG2 cells assessed as accumulation at G2/M phase at 0.2 uM measured after 24 hrs by propidium iodide staining based flow cytometry (reference value: 19.93%); assay type: functional
[8] = test system: ECa-109 cell line; test: Antiproliferative activity against human Eca-109 cells measured after 72 hrs by MTT assay; assay type: functional, cell-based; conditions: ECa-109, 72 h
[9] = test system: HepG2; test: Cell cycle arrest in human HepG2 cells assessed as accumulation at G1 phase at 0.2 uM measured after 24 hrs by propidium iodide staining based flow cytometry (reference value: 42.27%); assay type: functional
[10] = test system: HepG2; test: Induction of apoptosis in human HepG2 cells assessed as early apoptotic cells at 0.8 uM measured after 48 hrs by Annexin V-FITC/propidium iodide staining based flow cytometry (reference value: 1.81%); assay type: functional
[11] = test system: HepG2; test: Antitumor activity against human HepG2 cells xenografted in BALB/c nude mouse assessed as tumor growth inhibition at 10 mg/kg, ip administered once daily for 16 days relative to control; assay type: functional; conditions: HepG2, 384 h, time 16 day, read-out: TGI
[12] = test system: Bel-7402; test: Cell cycle arrest in human Bel-7402 cells assessed as accumulation at S phase at 1 uM measured after 24 hrs by propidium iodide staining based flow cytometry (reference value: 31%); assay type: functional
[13] = Acute toxicity in ICR mouse assessed as pathological change in heart at 100 mg/kg, ip measured after 6 days; assay type: organism-based; conditions: in vivo, 144 h, time 6 day
[14] = test system: Bel-7402; test: Cell cycle arrest in human Bel-7402 cells assessed as accumulation at G1 phase at 0.5 uM measured after 24 hrs by propidium iodide staining based flow cytometry (reference value: 38.72%); assay type: functional
[15] = test system: Bel-7402; test: Cell cycle arrest in human Bel-7402 cells assessed as accumulation at G2/M phase at 1 uM measured after 24 hrs by propidium iodide staining based flow cytometry (reference value: 30.29%); assay type: functional
[16] = test system: HepG2; test: Induction of apoptosis in human HepG2 cells measured after 48 hrs by Annexin V-FITC/propidium iodide staining based flow cytometry; assay type: functional, cell-based; conditions: dose 0.2-0.8 µM, DDE = dose-dependent effect
[17] = test system: Bel-7402; test: Cell cycle arrest in human Bel-7402 cells assessed as accumulation at S phase at 0.5 uM measured after 24 hrs by propidium iodide staining based flow cytometry (reference value: 31%); assay type: functional
[18] = Clearance in ICR mouse at 10 mg/kg, iv; assay type: ADME, organism-based; conditions: in vivo
[19] = Acute toxicity in ICR mouse assessed as pathological change in liver at 100 mg/kg, ip measured after 6 days; assay type: organism-based; conditions: in vivo, 144 h, time 6 day
[20] = Volume of distribution at steady state in ICR mouse at 10 mg/kg, iv; assay type: ADME, organism-based; conditions: in vivo, read-out: Vdss
[21] = Cmax in ICR mouse at 10 mg/kg, iv; assay type: ADME, organism-based; design: dose 10 mg/kg, route iv; conditions: in vivo
[22] = test system: HepG2; test: Induction of apoptosis in human HepG2 cells assessed as increase in cleaved caspase-3 expression at 0.2 to 0.8 uM measured after 48 hrs by Western blot analysis; assay type: functional, cell-based; conditions: dose 0.2-0.8 µM
[23] = test system: HepG2; test: Inhibition of colony formation in human HepG2 cells assessed as reduction in colony size at 0.2 to 0.8 uM treated every 3 days for 14 days by crystal violet staining based microscopy; assay type: functional, cell-based; conditions: dose 0.2-0.8 µM, time 14.0 day
[24] = Acute toxicity in ICR mouse assessed as change in AST level at 100 mg/kg, ip measured after 6 days; assay type: organism-based; conditions: in vivo, 144 h, time 6 day
[25] = test system: HepG2; test: Induction of apoptosis in human HepG2 cells assessed as necrotic cells at 0.2 uM measured after 48 hrs by Annexin V-FITC/propidium iodide staining based flow cytometry (reference value: 2.04%); assay type: functional
[26] = test system: HepG2; test: Induction of apoptosis in human HepG2 cells assessed as necrotic cells at 0.8 uM measured after 48 hrs by Annexin V-FITC/propidium iodide staining based flow cytometry (reference value: 2.04%); assay type: functional
[27] = Acute toxicity in ICR mouse assessed as body weight loss at 809 mg/kg, po measured for 6 days; assay type: organism-based; conditions: in vivo, 144 h, time 6 day
[28] = test system: HepG2; test: Cell cycle arrest in human HepG2 cells assessed as accumulation at S phase at 0.8 uM measured after 24 hrs by propidium iodide staining based flow cytometry (reference value: 32.81%); assay type: functional
[29] = test system: Bel-7402; test: Cell cycle arrest in human Bel-7402 cells assessed as accumulation at G1 phase at 1 uM measured after 24 hrs by propidium iodide staining based flow cytometry (reference value: 38.72%); assay type: functional
[30] = test system: HepG2; test: Cell cycle arrest in human HepG2 cells assessed as accumulation at G2/M phase at 0.4 uM measured after 24 hrs by propidium iodide staining based flow cytometry (reference value: 19.93%); assay type: functional
[31] = test system: PANC-1; test: Antiproliferative activity against human PANC-1 cells measured after 72 hrs by MTT assay; assay type: functional, cell-based; conditions: PANC-1, 72 h
[32] = test system: HepG2; test: Antitumor activity against human HepG2 cells xenografted in BALB/c nude mouse assessed as reduction in Ki-67 expression at 5 to 10 mg/kg, ip administered once daily for 16 days measured post-last dose by immunohistochemical analysis; assay type: functional, organism-based; conditions: dose 5-10 mg/kg, time 16.0 day
[33] = Acute toxicity in ICR mouse assessed as pathological change in spleen at 100 mg/kg, ip measured after 6 days; assay type: organism-based; conditions: in vivo, 144 h, time 6 day
[34] = test system: Bel-7402; test: Inhibition of colony formation in human Bel-7402 cells at 2 uM treated every 3 days for 14 days by crystal violet staining based assay; assay type: functional, cell-based; conditions: time 14.0 day
[35] = test system: HepG2; test: Induction of apoptosis in human HepG2 cells assessed as viable cells at 0.8 uM measured after 48 hrs by Annexin V-FITC/propidium iodide staining based flow cytometry (reference value: 94.5%); assay type: functional; conditions: read-out: Activity
[36] = test system: Bel-7402; test: Cell cycle arrest in human Bel-7402 cells assessed as accumulation at G2/M phase at 0.5 uM measured after 24 hrs by propidium iodide staining based flow cytometry (reference value: 30.29%); assay type: functional
[37] = Acute toxicity in ICR mouse assessed as pathological change in kidney at 100 mg/kg, ip measured after 6 days; assay type: organism-based; conditions: in vivo, 144 h, time 6 day
[38] = test system: HepG2; test: Cell cycle arrest in human HepG2 cells assessed as accumulation at G1 phase at 0.8 uM measured after 24 hrs by propidium iodide staining based flow cytometry (reference value: 42.27%); assay type: functional

C[C@H]1CCC/C=C/[C@@H]2C[C@H](O)C[C@H]2[C@H](OC(=O)/C=C/c2ccc(N(C)C)cc2)/C=C/C(=O)O1
Activity [1]: Non-Toxic | IC50 at 72 h [2]: 2810 nM | inhibition of growth at 1 µM [3]: 92.1% | solubility [4]: 2500 µg/mL (≈ 5.51 mM) | Activity [5]: 3.05% | Activity [6]: 2.03% | Activity [7]: 22.32% | IC50 [8]: 1770 nM | Activity [9]: 48.26% | Activity [10]: 1.49% | inhibition in vivo at 10 mg/kg [11]: 46.2% | Activity [12]: 19.59% | Activity [13]: Non-Toxic | Activity [14]: 51.26% | Activity [15]: 26.22% | Activity [16]: Dde | Activity [17]: 21.14% | clearance [18]: 42.5 mL/min/kg | Activity [19]: Non-Toxic | Vd [20]: 0.852 L/kg | Cmax [21]: 14400 ng/mL | Activity [22]: Active | inhibition [23]: Active | Activity [24]: Non-Toxic | Activity [25]: 28.85% | Activity [26]: 39.85% | Activity [27]: Toxic | Activity [28]: 23.25% | Activity [29]: 54.21% | Activity [30]: 20.88% | IC50 [31]: 640 nM | Activity [32]: Active | Activity [33]: Non-Toxic | inhibition [34]: Active | viability at 0.8 µM [35]: 54.4% | Activity [36]: 27.62% | Activity [37]: Non-Toxic | Activity [38]: 60.9%
